Active and inactive are the calls of the source. The rule behind the calls is not given here.
Columns and labels:
[1] = Inhibition of glucose-induced insulin secretion in rat pancreatic islets assessed as residual insulin release at 1 uM; type: functional, Pancreatic islet
[2] = Inhibition of glucose-induced insulin secretion in rat pancreatic islets assessed as residual insulin release at 10 uM; type: functional, Pancreatic islet
Aorta = test: Myorelaxant activity in rat aortic ring assessed as inhibition of KCL-induced contraction; type: functional, tissue-based
[3] = Inhibition of glucose-induced insulin secretion in rat pancreatic islets assessed as residual insulin release; type: functional, cell-based; settings: Pancreatic islet
[4] = Ratio of EC50 for rat aortic ring to IC50 for rat pancreatic islets; type: functional, Aorta
[5] = Inhibition of glucose-induced insulin secretion in rat pancreatic islets assessed as residual insulin release at 50 uM; type: functional, Pancreatic islet
[6] = target: Sulfonylurea receptor 1, Kir6.2 (Homo sapiens, UniProt Q09428+Q14654); test: Activation of human recombinant SUR1/Kir6.2 channel expressed in HEK293 cells assessed as increase in ionic current by whole cell patch clamp assay; type: cell-based
Chain of Sulfonylurea receptor 1, Kir6.2 (Q14654 whole entry): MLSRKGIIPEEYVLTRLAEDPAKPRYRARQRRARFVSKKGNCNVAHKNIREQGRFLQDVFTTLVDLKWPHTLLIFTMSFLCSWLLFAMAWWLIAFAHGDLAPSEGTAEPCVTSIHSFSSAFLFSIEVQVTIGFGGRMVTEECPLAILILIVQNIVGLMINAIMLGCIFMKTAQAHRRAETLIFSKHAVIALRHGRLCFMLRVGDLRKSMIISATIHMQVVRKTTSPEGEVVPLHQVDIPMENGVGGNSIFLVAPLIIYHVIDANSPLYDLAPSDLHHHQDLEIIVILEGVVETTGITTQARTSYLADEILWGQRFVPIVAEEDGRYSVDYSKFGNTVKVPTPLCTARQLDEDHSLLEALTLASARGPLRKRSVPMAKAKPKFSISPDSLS
Chain of Sulfonylurea receptor 1, Kir6.2 (Q09428 whole entry): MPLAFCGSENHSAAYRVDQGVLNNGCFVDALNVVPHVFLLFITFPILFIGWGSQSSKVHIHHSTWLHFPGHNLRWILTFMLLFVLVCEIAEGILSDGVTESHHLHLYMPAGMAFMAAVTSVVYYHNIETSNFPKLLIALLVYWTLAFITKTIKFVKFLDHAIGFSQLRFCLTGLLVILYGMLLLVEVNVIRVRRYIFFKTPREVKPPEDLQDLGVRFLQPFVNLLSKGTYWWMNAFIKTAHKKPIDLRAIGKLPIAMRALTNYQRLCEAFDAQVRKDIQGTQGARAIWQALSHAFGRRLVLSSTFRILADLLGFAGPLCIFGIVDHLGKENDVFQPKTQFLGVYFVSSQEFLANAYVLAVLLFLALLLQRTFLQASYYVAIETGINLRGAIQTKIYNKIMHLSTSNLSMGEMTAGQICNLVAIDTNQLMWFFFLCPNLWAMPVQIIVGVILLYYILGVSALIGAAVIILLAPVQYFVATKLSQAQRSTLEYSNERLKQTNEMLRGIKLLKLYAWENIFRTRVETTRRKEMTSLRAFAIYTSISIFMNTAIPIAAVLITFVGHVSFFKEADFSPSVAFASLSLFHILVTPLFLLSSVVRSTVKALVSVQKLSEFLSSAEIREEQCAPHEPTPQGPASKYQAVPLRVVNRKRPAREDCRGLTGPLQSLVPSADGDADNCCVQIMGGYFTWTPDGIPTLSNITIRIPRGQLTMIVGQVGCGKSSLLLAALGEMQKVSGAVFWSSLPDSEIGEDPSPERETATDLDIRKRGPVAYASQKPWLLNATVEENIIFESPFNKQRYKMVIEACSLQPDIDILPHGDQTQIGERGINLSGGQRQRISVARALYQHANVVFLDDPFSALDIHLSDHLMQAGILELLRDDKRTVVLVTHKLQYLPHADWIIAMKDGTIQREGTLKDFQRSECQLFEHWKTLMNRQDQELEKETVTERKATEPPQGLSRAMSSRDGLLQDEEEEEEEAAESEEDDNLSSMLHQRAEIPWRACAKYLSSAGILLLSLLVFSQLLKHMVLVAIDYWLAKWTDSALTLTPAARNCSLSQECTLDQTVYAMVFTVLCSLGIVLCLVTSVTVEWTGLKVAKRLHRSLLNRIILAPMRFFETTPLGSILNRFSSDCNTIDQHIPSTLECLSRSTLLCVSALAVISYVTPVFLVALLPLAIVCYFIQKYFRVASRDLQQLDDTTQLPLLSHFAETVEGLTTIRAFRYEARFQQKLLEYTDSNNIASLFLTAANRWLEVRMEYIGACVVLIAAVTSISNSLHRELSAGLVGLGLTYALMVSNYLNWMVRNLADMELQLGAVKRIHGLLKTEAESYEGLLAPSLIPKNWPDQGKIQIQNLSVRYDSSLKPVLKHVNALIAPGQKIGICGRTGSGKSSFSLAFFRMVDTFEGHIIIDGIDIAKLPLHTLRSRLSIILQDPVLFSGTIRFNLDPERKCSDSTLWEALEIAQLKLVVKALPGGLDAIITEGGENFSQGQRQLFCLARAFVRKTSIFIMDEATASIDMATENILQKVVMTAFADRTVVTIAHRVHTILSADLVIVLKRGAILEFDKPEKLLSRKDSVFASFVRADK

[7] = Dissociation constant, pKa of the compound; type: physicochemical
[8] = Inhibition of glucose-induced insulin secretion in rat pancreatic islets assessed as residual insulin release at 0.1 uM; type: functional, Pancreatic islet
[9] = target: Sulfonylurea receptor 1, Kir6.2 (Homo sapiens) (UniProt Q14654+Q09428); test: Activation of human recombinant SUR1/Kir6.2 channel expressed in HEK293 cells assessed as increase in ionic current by whole cell patch clamp assay in presence of KATP channel blocker Tolbutamide; type: cell-based
[10] = Increase in 86Rb outflow in perfused rat pancreatic islets at 10 uM in presence of extracellular calcium and glucose; type: functional, Pancreatic islet

| Compound | Activity [1] [%] | Activity [2] [%] | EC50 (Aorta) [µM] | Activity [5] [%] | other results |
| --- | --- | --- | --- | --- | --- |
| O=S1(=O)N=C(NC2CCC2)Nc2cccc(Cl)c21 | 77.56 | 30.23 | > 30 | – | – |
| O=S1(=O)N=C(NC2CCC2)Nc2ccc(Cl)cc21 | 60.19 | 6.44 | – | 8.11 | IC50 [3]: 0.48 µM; Ratio EC50 [4]: 75 |
| O=S1(=O)NC(NC2CCC2)=Nc2cc(Cl)ccc21 | – | – | – | – | EC50 [6]: 0.08 µM |
| CCCNC1=NS(=O)(=O)c2ccc(Cl)cc2N1 | 71.5 | 14.45 | 73.2 | 8.74 | – |
| CCCNC1=NS(=O)(=O)c2cc(Cl)ccc2N1 | 83.41 | 14.24 | – | 3.56 | – |
| CCCNC1=NS(=O)(=O)c2cccc(Cl)c2N1 | – | – | 180 | 94.69 | – |
| O=S1(=O)N=C(NC2CCC2)Nc2c(Cl)cccc21 | – | – | 126 | 102.55 | – |
| CC(C)NC1=NS(=O)(=O)c2cccc(Cl)c2N1 | – | – | > 300 | 96.88 | pKa [7]: 9.11 |
| O=S1(=O)N=C(NC2CC2)Nc2ccc(Cl)cc21 | 84 | 26.56 | 190 | 5.82 | – |
| CC(C)NC1=NS(=O)(=O)c2cc(Cl)c(Cl)cc2N1 | 13.19 | 6.29 | – | 4.96 | – |
| CCNC1=NS(=O)(=O)c2ccc(Cl)cc2N1 | 21.7 | 9.55 | 54.8 | – | – |
| CC(C)NC1=NS(=O)(=O)c2cc(Cl)ccc2N1 | 36.19 | 4.84 | – | 5.66 | Activity [8]: 90.41% |
| O=S1(=O)N=C(NC2CC2)Nc2cc(Cl)ccc21 | 93.02 | 12.74 | 156 | 7.97 | – |
| O=S1(=O)N=C(NC2CCC2)Nc2cc(Cl)ccc21 | 66.17 | 11.27 | > 300 | 9.58 | Activity [9]: inactive; Activity [10]: 1.45 %/min |
| CCNC1=NS(=O)(=O)c2cccc(Cl)c2N1 | – | – | 90.4 | 80.4 | – |
| CC(C)NC1=NS(=O)(=O)c2ccc(Cl)cc2N1 | 13.2 | 7.51 | 53.4 | 6.38 | IC50 [3]: 0.23 µM; Ratio EC50 [4]: 230; pKa [7]: 9.35; Activity [8]: 76.72% |
| CCNC1=NS(=O)(=O)c2cc(Cl)ccc2N1 | 40.79 | 10.65 | – | 2.09 | – |
| CCNC1=NS(=O)(=O)c2c(Cl)cccc2N1 | 95.72 | 37.55 | > 300 | – | – |

— ChEMBL document CHEMBL1156766, “Chloro-substituted 3-alkylamino-4H-1,2,4-benzothiadiazine 1,1-dioxides as ATP-sensitive potassium channel activators: impact of the position of the chlorine atom on the aromatic ring on activity and tissue selectivity” (J Med Chem, 2010)
